Series [1] has as its system HCoV-NL63-infected LLC-MK2 cells. Description: Propidium iodide (PI) live/dead imaging in HCoV-NL63/LLC-MK2. It is filed as cell-based, rhesus monkey. The conditions noted are these: 20 µM post-treatment, 48 h post-infection, vs virus + DMSO, p < 0.01. The protocol:
Cells were infected as in the immunofluorescence assay (IFA) and were post-treated with KB-2777 (20 µM, DMSO ≤ 0.1%). At 48 h post-infection, cells were stained live with PI (approximately 1 µg/mL, 30 min) and were immediately imaged (PI/Hoechst). For each field, we counted total nuclei (Hoechst), NL63 S-positive cells, PI-positive cells, and double-positive (S∩PI) cells. Outcomes were % PI^+/Total and % PI^+ among infected cells (PI^+/NL63 S^+). […] Statistics used the Mann–Whitney U test (two-tailed).

Series [2] has as its system HCoV-NL63. Description: Time-of-addition, CPE-based cell protection (EZ-Cytox), HCoV-NL63/LLC-MK2. On the set-up: species or system Human coronavirus NL63. The note with it: HCoV-NL63, 5 µM and 20 µM, 48 h post-infection. How it is done:
For antiviral activity, cells in 96-well plates were infected and treated with test compounds as indicated and incubated for 48–72 h. Cell viability was quantified by WST (EZ-Cytox) at 450 nm on the same reader. Cytoprotective effect was calculated by normalizing to infected DMSO controls and converting to percent protection: % Protection = ((V_drug + virus − V_virus-only)/(V_mock − V_virus-only)) × 100. […]
Unless otherwise specified, infections were carried out at 100 TCID50 per well with 1 h adsorption at 37 °C, and compounds were used at 20 µM. Primary readout was S protein IFA at 48 h; EZ-Cytox and TCID50 at 48 h for the same regimens are provided in Supplementary Data (Figures S14 and S15). […]
Cell protection (%) was calculated relative to the DMSO control. […] (b) Infectious progeny released under the same TOA conditions, quantified as log10(TCID₅₀/mL) from culture supernatants (see Methods). […]
(§1) Figure S15. […] Cell protection (%) was calculated relative to the DMSO control. […]
(§2) Statistics: one-way ANOVA with Dunnett’s multiple comparisons vs DMSO; *P<0.05, **P<0.01, ***P<0.001, ****P<0.0001. (b) Infectious progeny released under the same TOA conditions, quantified as log₁₀(TCID₅₀/mL) from culture supernatants by endpoint dilution on Vero E6 indicator cells (Spearman–Kärber method; see Methods). […]

The subject of series [3] is HCoV-NL63. Nature of the series: Time-of-addition, spike (S) protein immunofluorescence assay, HCoV-NL63/LLC-MK2. It is filed as cell-based, Human coronavirus NL63. The protocol: At 48 h post-infection, cells were fixed in 4% paraformaldehyde for 15 min, permeabilized with 0.1% Triton X-100, and blocked with 5% BSA. Samples were incubated with a virus-specific rabbit anti-S protein primary antibody, followed by a goat anti-rabbit IgG H&L (FITC) secondary antibody (Supplementary Table S1) and Hoechst nuclear counterstain. Images were acquired on an epifluorescence microscope. Using Fiji, binary thresholding and particle analysis (or Cell Counter) were applied to count the total number of cells and the number of S-positive cells per field, and the infection rate per well was calculated as (S-positive cells/total cells × 100%). At least eight randomly selected fields per well were analyzed.
TOA experiments were performed in HCoV-NL63–infected LLC-MK2 cells using four regimens: • Full: compound present from −24 h to 48 h relative to infection. • Pre-treatment: −24 h to −1 h, wash at −1 h, then infection in drug-free medium. • Co-treatment: −1 h to 0 h during adsorption only, wash at 0 h. • Post-treatment: 0 h to 48 h after adsorption.
Unless otherwise specified, infections were carried out at 100 TCID50 per well with 1 h adsorption at 37 °C, and compounds were used at 20 µM. Primary readout was S protein IFA at 48 h; EZ-Cytox and TCID50 at 48 h for the same regimens are provided in Supplementary Data (Figures S14 and S15).

Series [4] concerns HCoV-OC43. Nature of the series: Time-of-addition, CPE reduction in MRC-5 cells, HCoV-OC43. It is filed as cell-based, Human coronavirus OC43. The conditions noted are these: HCoV-OC43, MRC-5 cells, 48 h. The protocol:
(§3) For antiviral activity, cells in 96-well plates were infected and treated with test compounds as indicated and incubated for 48–72 h. Cell viability was quantified by WST (EZ-Cytox) at 450 nm on the same reader. Cytoprotective effect was calculated by normalizing to infected DMSO controls and converting to percent protection: % Protection = ((V_drug + virus − V_virus-only)/(V_mock − V_virus-only)) × 100.
For HCoV-OC43, TOA was assessed by CPE reduction in MRC-5 cells and by TCID50 on Vero E6 (no IFA collected).
Figure S14. Time-of-addition (TOA) analysis of KB-2777 against HCoV-NL63 (48 h). (a) CPE-reduction assay. KB-2777 was applied at 20 µM (blue) or 5 µM (red) under the indicated TOA conditions (Full, Pre, Co, Post, DMSO).
Cell protection (%) was calculated relative to the DMSO control. Bars show mean ± SD (n = 3). […] (b) Infectious progeny released under the same TOA conditions, quantified as log10(TCID₅₀/mL) from culture supernatants (see Methods). […]
as §1, §2

Series [5] deals with HCoV-NL63. Nature of the series: Primary antiviral screening (virus inhibition) in HCoV-NL63-infected LLC-MK2 cells. It is filed as cell-based, Human coronavirus NL63. How it is done:
as §3
We screened 11 oxazole-4-carboxamide derivatives (Figure 1) against HCoV-NL63 in LLC-MK2 cells and quantified antiviral activity and cytotoxicity (Figure 2). Several derivatives inhibited NL63 with distinct selectivity profiles. […] Visible crystals or precipitates formed at ≥50 µM without loss of viability or morphological change; therefore, downstream assays were performed at ≤25 µM.

The nature of series [6]: Cytotoxicity (EZ-Cytox WST) in LLC-MK2 cells. The series is classed as cell-based. The conditions noted are these: rhesus monkey, 72 h exposure. How it is done:
Cells were seeded at 2 × 10^4 cells per well in 96-well plates and, after overnight attachment, exposed to test compounds for 72 h in maintenance medium. The final DMSO concentration was ≤0.1% (v/v) for all conditions, including vehicle controls. Cell viability was quantified using EZ-Cytox WST reagent (DoGenBio, Seoul, Republic of Korea) according to the manufacturer’s instructions; absorbance was read at 450 nm on a SpectraMax i3x microplate reader (Molecular Devices, San Jose, CA, USA). Viability for each well was normalized to the mean of vehicle-treated (mock) controls on the same plate and expressed as percent viability. Each condition included technical replicates (n = 3) per experiment. Concentration–response data from ≥3 independent experiments were fit to a four-parameter logistic (4PL) model in GraphPad Prism 10.1.2 (GraphPad Software, San Diego, CA, USA) (log10-transformed concentrations; bottom and top unconstrained).

The EC50 is the concentration giving half of the maximal effect. For orientation: CC50 means the concentration at which the toxic effect on the cells reaches its halfway point. Low values mean greater toxicity to the cells, high ones lower toxicity to the cells.

“And” between values parts separate entries of the source, which are not always exact repeats. Equal values may be shown once. “Also recorded” adds a separate entry of the source.

For `COc1cccc(-c2oc(-c3ccc(C(F)(F)F)cc3)nc2C(=O)NCC2CC2)c1` [KB-2777, N-(cyclopropylmethyl)-5-(3-methoxyphenyl)-2-(4-(trifluoromethyl)phenyl)Oxazole-4-Carboxamide], in series [1], the “% PI+ among infected cells (PI+/NL63 S+)” value is “reduces” and the “% PI+/Total cells” value is “reduces”. Also, the “CPE-based cell protection across TOA regimens” value in series [2] is recorded as “reproduced this pattern”. For the same molecule, the “inhibition by S protein IFA, post-treatment” value in series [3] (HCoV-NL63/LLC-MK2, 20 µM, 0 h to 48 h, readout 48 h) is “retained measurable activity”. Also, the “inhibition by S protein IFA, co-treatment” value in series [3] (HCoV-NL63/LLC-MK2, 20 µM, adsorption only (−1 h to 0 h), readout 48 h, vs virus-only DMSO control) is reported as “little effect”. In addition, the “inhibition by S protein IFA, pre-treatment” value in series [3] (HCoV-NL63/LLC-MK2, 20 µM, pre-exposure with washout, readout 48 h) is listed as “retained measurable activity”. The “inhibition by S protein IFA, full regimen” value in series [3] (HCoV-NL63/LLC-MK2, 20 µM, −24 h to 48 h, readout 48 h) is given as “greatest inhibition”. Moreover, the “time-of-addition effect-size order of regimens” value in series [3] (full, pre, co, post regimens, across readouts) is recorded as “full > pre ≈ post > co; also recorded: full » pre ≈ post » co”. For the same molecule, the “CPE reduction across TOA regimens” value in series [4] was “greatest antiviral effect with full exposure, intermediate activity with pre- and post-treatment, and little or no effect with co-treatment”. Besides, in series [5] (HCoV-NL63/LLC-MK2), the “SI (=CC50/EC50)” value is > 8 and >8.28. Moreover, in series [5] (Human coronavirus NL63, LLC-MK2, HCoV-NL63/LLC-MK2, primary screen, read-out: EC50), the EC50 was determined as 6.04 µM. Further, the CC50 at 72 h in series [6] was greater than 50 µM.

The values are drawn from article PMC12655682, “Screening-Identified Oxazole-4-Carboxamide KB-2777 Exhibits In Vitro Anti-Coronavirus Activity” (Pharmaceutics, 2025).
